Bounds are passed on as bounds.

For orientation: melting point means the temperature, or range, at which the solid turns liquid.

In turn, `CC(C)(C)c1ccc(C(=O)Nc2cn3cc(Br)ccc3n2)cc1` displayed a melting point of 249 to 250 °C.
`COCCNC(=O)Nc1nc2ccc(Sc3nnc4ccccn34)cc2s1` registered a melting point of 252 to 257 °C.
With `CNC1(Cc2ccccc2)C(=O)Nc2ccc(Cl)cc21` (centres undefined), the melting point came out at 196 °C.
In turn, `COc1cc(C)nc(S(C)(=O)=O)n1` gave a melting point of 80 °C.
`O=C(NCc1cccnc1)Nc1cc(N2CC(c3ccccc3)CC2=O)ccn1` (centres undefined) gave a melting point of 179 to 180 °C.
Next, `COc1cc2ncc(C#N)c(Nc3ccc(SC)cc3)c2cc1OC`: 235 to 237 °C.
`COC(=O)c1cscc1Nc1ccc(C(F)(F)F)cc1[N+](=O)[O-]` returned a melting point of 175 °C.
The molecule `COC(=O)C=Cc1ccc(C(C)(C)C)cc1` had a melting point of 35 °C.
Regarding `COc1cc(OC(C)C)ccc1-c1c(OC(C)C)cccc1C(=O)O`, the melting point was in the range of 117 to 119 °C.
The molecule `Nc1ncc(Br)nc1-c1ccccc1Cl` came in with a melting point of 138 to 140 °C.
Take `O=C(Nc1ccccc1)c1ccc(O)c(Nc2ccccc2)c1`: the melting point lay within 158 to 159 °C.
Next, `O=S1(=O)N=C(NC23CC4CC(CC(C4)C2)C3)Nc2cc(Cl)sc21`: 339 to 340 °C; `CC1(N)CN(C(c2ccccc2)c2ccccc2)C1`: 84 to 86 °C; `NC(=O)c1c(OCc2c(F)cc(Br)cc2F)nsc1NC(=O)NCCCCN1CCCC1`: 208 °C.
Next, `CN(CCCC(=O)O)c1ccc(C(=O)c2ccccc2)cc1`: 111 to 113 °C; `CCN(CC)CCCNc1nc2ccccc2n(-c2ccc(Cl)cc2)c1=O`: 123 to 124 °C.
As for `CC(=O)Oc1ccc(-c2nn(C3CCCC3)c3c(F)cccc23)cc1`, the melting point is 90 to 91 °C.
Next, `Cc1cc(COc2ccc(S(=O)(=O)NC[C@@H](C(=O)NO)N3CCN(S(C)(=O)=O)CC3)cc2)c2ccccc2n1`: 185 °C.
In the case of `CCOC(=O)c1[nH]c2cc(Cl)cc(Cl)c2c1NCCC(=O)c1ccccc1`, the melting point was in the range of 195 to 197 °C.
As for `CC(C)N(CCC(=O)OC1c2ccccc2C(=O)N1c1ccc2ccc(Cl)nc2n1)C(C)C` (centres undefined), the melting point turned out to be 135 °C.
`O=C(O)c1ccc(OCCCCCCO)cc1` registered a melting point of 132 to 135 °C.
In turn, `O=C(OCN1C(=O)c2ccccc2S1(=O)=O)c1ccncc1` had a melting point of 145 to 146 °C.
Next, `O=S(=O)(N[C@H](CO)[C@@H](c1ccccc1)C(F)(F)F)c1ccc(Cl)cc1`: 129 to 131 °C.
Regarding `NC1CCOC1c1ncnc2nc[nH]c12` (centres undefined), the melting point lay in the range of 128 to 130 °C.
Consider `Nc1noc2cc3c(cc12)C1(CO3)C(=O)N(Cc2ccccn2)c2ccccc21` (centres undefined), for which the melting point lay within 190 to 192 °C.
Take `N#CCc1nn2c(-c3cccc(C(F)(F)F)c3)ccnc2c1C#N`: the melting point lay in the range of 180 to 181 °C.
Molecule `N#CCc1ccc(Nc2nc(OCC3CCCCC3)c3[nH]cnc3n2)cc1` had a melting point of 191 to 192 °C.
For `Cc1ccc2c(-c3ccccc3)onc2c1`, the melting point came out at 77.8 °C.
`CCn1cnc2c(Nc3cccc(C(=O)OC)c3)nc(Cl)nc21` returned a melting point of 148 °C.
For the molecule `Cc1csc2nc(=O)n(C)c(-c3ccccc3F)c12`, the melting point was 176 to 178 °C.
As for `CC(=O)c1cccc(Nc2nnc(-c3cccc(Oc4cccc(C(F)(F)F)c4)c3)s2)c1`, the melting point is 130 to 133 °C.
The molecule `O[C@@H]1CCC[C@H]1Nc1ccc(Cl)c(Cl)c1` (relative stereo) showed a melting point of 167 to 168 °C.
Next, `CCCCn1c(=O)c(NC(=O)Nc2c(C(C)C)cc(CN)cc2C(C)C)c(-c2cccc(OC)c2)c2cccnc21`: 186 to 187 °C; `O=C(O)c1cncc2cccc([N+](=O)[O-])c12`: 285 °C; `COc1cccc2sc(C(=O)Nc3nnn[nH]3)c(OC(C)C)c12`: 233 °C.
Next, `COc1ccccc1NC(=S)C1CCc2nc[nH]c2C1` (centres undefined): 218 to 219 °C; `COc1cc(C(=O)C#CCO)cc(OC)c1OC`: 104 to 105 °C; `CCCc1nn(C)c2c(=O)[nH]c(-c3cc(/C=C/C(=O)N(C)C)ccc3OCC)nc12`: 219 to 221 °C.
`CC(C)(C)OC(=O)NC(C)(C)c1ccc(-c2nc(Nc3cccc(CCO)c3)ncc2C#N)cc1`: the melting point turned out to be 164 °C.
Next, `CCOCn1c(C(F)(F)F)cc(C#N)c1-c1ccc(Cl)cc1`: 83 to 84.5 °C; `O=C(O)/C=C/c1ccc(N2CCCC2)nc1`: 170 °C; `O=C(CC(Cc1cccc2ccccc12)C(=O)N1C(=O)OCC1Cc1ccccc1)N1CCOCC1` (centres undefined): 80 to 82 °C.
Next, `O=C(O)Cc1nc(-c2ccc(Cl)cc2)oc1-c1ccsc1`: 218 to 219 °C; `COCc1ccn2nc(S(=O)(=O)Cl)nc2n1`: 125 °C; `COc1c2c(c(OC)c(OC)c1OC)CCC(CCOc1ccc(Cl)cc1)CC2`: 98 to 102 °C.
Next, `CCCN(CCC)C(=O)CCC(=O)O`: 35 to 37 °C; `O=c1c2cc(O)cc(O)c2cc2n1CCCC2`: 214 to 215 °C; `CC(=O)NCC1CC(c2cc(F)c(F)c(F)c2)=NO1` (centres undefined): 136 to 137 °C.
In the case of `O=C(c1cccnc1)c1ccc([N+](=O)[O-])c(CO)c1`, the melting point stood at 184 °C.
In turn, `N#Cc1cnc2sc(C#Cc3ccncc3)cc2c1Nc1ccc2[nH]ccc2c1` came in with a melting point of more than 250 °C.
On to `FC(F)(F)COc1nc(NCc2ccc(C(F)(F)F)cc2)nc(Nc2ccc3cc[nH]c3c2)n1`, for which the melting point was 119 to 121 °C.
In turn, `COc1ccc(Nc2cc(-c3ccccc3)nc(Nc3ccc(OC)c(Cl)c3)n2)cc1Cl` returned a melting point of 250 to 254 °C.
For the molecule `CCOC(=O)COc1cc(-n2ncc(=O)n(C)c2=O)c(Cl)cc1Cl`, the melting point lay within 115 to 117 °C.
As for `CCC(C)(NC(=O)C1=C(C(=O)Nc2cc(OC3CCCC3)c(Cl)cc2F)CCCC1)c1ccc(Cl)cc1` (centres undefined), the melting point was in the range of 200 to 201 °C.
As to `CC(C)(Cn1cnc2c(N)nc3ccccc3c21)C(N)=O`, the melting point lay within 287 to 289 °C.
`N#Cc1nn(-c2c([N+](=O)[O-])cc(C(F)(F)F)cc2[N+](=O)[O-])c(N)c1SC(F)(F)F` had a melting point of 214 °C.
For `Cn1c(-c2ccccc2)c2c(c(C#N)c1=O)-c1ccccc1C2=O`, the melting point was in the range of 255 to 256 °C.
With `Cc1nccn1-c1ccc(N2C[C@H](CNc3ccon3)OC2=O)cc1F`, the melting point lay within 106 to 107 °C.
Regarding `Clc1ccc2c(c1)C(NC1=NCCS1)CCC2` (centres undefined), the melting point lay within 164 to 166 °C.
Next, `COC(=O)c1ccc(NC(=O)c2ccccc2C)nc1`: 167 to 169 °C.
Next, `Brc1ccc(-c2nc(-c3cccc(Br)c3)n(-c3ccccc3)n2)cc1`: 129 to 131 °C.
Next, `Cc1cc2c(cc1Oc1nnnn1-c1ccccc1)[C@@H](c1ccccc1)CN(C)CC2`: 140 to 142 °C.
`Cc1ccc(-n2c(=O)n(OCc3ccccc3)c(=O)c3cc(F)c(N4CCCC4)nc32)cc1` returned a melting point of 192 to 194 °C.
With `COCCOC(=O)c1c(-c2ccncc2)[nH]c(-c2ccncc2)c1C`, the melting point fell in the range of 174 to 177 °C.
